US6818640B1, “2-imino-1,3-thiazine derivatives” (Shionogi & Co., Ltd., priority 1999, dated 2004)
Like-named read-outs stand apart in the source and are kept apart here.

What was measured:
human CB2R [1] = target: T1, human CB2R (Homo sapiens, UniProt P34972); test: CB2R-mediated suppression of forskolin-stimulated cAMP synthesis (agonistic activity), CHO cells expressing human CB2R; type: cell-based
T1 construct: The coding region of human CB2R cDNA; expressed in transfected cells
Method: After the incubation, 4 μM forskolin (Sigma) was added and the cells were incubated for 20 min at 37° C. The reaction was stopped by the addition of 1N HCl and the amount of cAMP in the cell supernatant was measured using an EIA kit (Amersham Pharmacia Biotech) according to the manufacture's protocol.

[2] = target: T2, human CB1 receptor (CB1R) (Homo sapiens, UniProt P21554); test: Receptor binding assay of human CB1 receptor (CB1R), membranes of CB1R-expressing CHO cells
T2 construct: expressed in transfected cells
T2 sequence (P21554 whole entry): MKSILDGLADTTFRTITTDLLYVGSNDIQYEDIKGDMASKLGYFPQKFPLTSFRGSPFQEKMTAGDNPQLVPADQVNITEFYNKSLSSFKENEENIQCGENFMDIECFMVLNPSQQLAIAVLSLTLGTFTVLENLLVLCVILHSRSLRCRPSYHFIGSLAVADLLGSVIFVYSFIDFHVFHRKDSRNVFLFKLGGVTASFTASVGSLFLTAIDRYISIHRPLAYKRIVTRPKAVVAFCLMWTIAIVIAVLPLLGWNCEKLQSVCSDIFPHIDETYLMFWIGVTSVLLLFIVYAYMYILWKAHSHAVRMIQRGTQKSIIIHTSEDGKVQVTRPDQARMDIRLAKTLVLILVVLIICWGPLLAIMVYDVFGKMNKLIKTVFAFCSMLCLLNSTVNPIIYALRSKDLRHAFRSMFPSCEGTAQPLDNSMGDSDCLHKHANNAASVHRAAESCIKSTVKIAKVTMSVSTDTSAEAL
Method: (§1) The crude membrane fractions were then prepared from the CB2R-expressing CHO cells. Receptor binding assay was performed by incubating the membranes with each test compound and [^3H]CP55940 (at a final concentration of 0.5 nM: NEN Life Science Products) in the assay buffer (50 mM Tris-HCl, 1 mM EDTA, 3 mM MgCl2, pH 7.4) containing 0.5% bovine serum albumin (BSA) for 2 hr at 25° C. The incubation mixture was filtered through 1% polyethylenimine (PEI)-treated GF/C glass filter and washed with 50 mM Tris-HCl (pH 7.4) containing 0.1% BSA. The radioactivity was then counted with a liquid scintillation counter.
(§2) For the receptor binding assay of human CB1 receptor (CB1R), the stable CB1R-expressing CHO cells were prepared as described above, and the binding assay was performed with their membrane fractions. As a consequence of these studies, the Ki values of each test compound for both cannabinoid receptors were determined, which were presented in Table 89.

human CB2R [3] = target: T1, human CB2R; test: Human CB2 receptor (CB2R) binding inhibition, [3H]CP55940, membranes of CB2R-expressing CHO cells
Method: The prepared vector was transfected into Chinese Hamster Ovary (CHO) cells with LipofectAMINE reagent (Gibco BRL) according to the manufacture's protocol, and the stable CB2R-expressing clones were selected.
as §1, §2

[4] = test system: SRBC-induced DTH reaction; test: Sheep red blood cell (SRBC)-induced delayed type hypersensitive (DTH) reaction, foot pad swelling; type: in vivo; settings: female ddY mice, measured after 24 hrs
Method: Female ddY mice (7 weeks old) were used for the sheep red blood cell (SRBC)-induced delayed type hypersensitive (DTH) reaction.
Cannabinoid receptor agonist, I-6, I-60, I-77 and I-118 were suspended in 0.6% arabic gum solution. Mice were sensitized by the intradermal injection of 10^7 cells of SRBC (40 μl/foot) into the left hind foot pad. After 5 days, DTH reaction was induced by the intradermal injection of 10^8 cells of SRBC in the right hind foot pad. Test compounds were administerd p.o. (10 ml/kg) 1 hr before and 5 hr after the induction of DTH reaction. After 24 hrs of the injection of SRBC, the left and right foot pad volumes were measured by the water displacement method. The foot pad swelling was calculated as the differences in the volumes between the right and left hind foot pad, and used as an index of the DTH reaction.
Data are expressed as the inhibition percentage of each compound. Statistical analysis was performed with Welch's t-test, in which the value of P<0.05 is considered as a significant difference.

[5] = dose 30 mg/kg p.o. 1 hr before and 5 hr after induction

T1 sequence (P34972 whole entry): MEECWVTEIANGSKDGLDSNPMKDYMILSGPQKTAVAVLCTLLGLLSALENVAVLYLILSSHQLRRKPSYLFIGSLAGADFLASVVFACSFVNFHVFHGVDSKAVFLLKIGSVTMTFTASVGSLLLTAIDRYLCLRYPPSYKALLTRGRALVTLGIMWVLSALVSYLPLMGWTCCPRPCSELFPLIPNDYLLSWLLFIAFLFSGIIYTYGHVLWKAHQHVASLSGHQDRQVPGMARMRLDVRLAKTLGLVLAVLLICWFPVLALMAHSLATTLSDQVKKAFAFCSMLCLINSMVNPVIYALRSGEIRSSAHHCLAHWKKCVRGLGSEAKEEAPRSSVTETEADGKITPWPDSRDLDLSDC

Compound	Ki [2]	Ki (human CB2R [3])	further results
CSC(=S)N1CC(C)(C)CSC1=Nc1ccccc1C(C)C [Compound I-5, 2-(2-isopropylphenyl)imino-3-(methylthio)thiocarbonyl-5,5-dimethyl-1,3-thiazine]	> 5000 nM	61 nM	IC50 (human CB2R [1]): 6.5 nM; melting point: 77 to 79 °C
CCc1ccccc1N=C1SCC(C)(C)CN1C(=S)SC [Compound I-56]	–	54 nM	–
CSC(=S)N1CC(C)(C)CSC1=Nc1ccccc1SC [Compound I-62]	–	44 nM	–
CCSC(=S)N1CC(C)(C)CSC1=Nc1ccccc1C(C)C [Compound I-84]	> 5000 nM	35 nM	–
CCSC(=O)N1CC(C)(C)CSC1=Nc1ccccc1C(C)CC (stereo not drawn) [Compound I-23]	> 5000 nM	29 nM	IC50 (human CB2R [1]): 2.6 nM
CSC(=O)N1CC(C)(C)CSC1=Nc1ccccc1C(C)C [Compound I-50]	> 5000 nM	39 nM	–
CSC(=S)N1CC(C)(C)CSC1=Nc1ccc(C)c(C)c1 [Compound I-74]	–	48 nM	–
COc1ccccc1N=C1SCC(C)(C)CN1C(=S)SC [Compound I-60]	2100 nM	18 nM	Inhibition percentage (foot pad swelling, DTH reaction) [4, 5]: 31.1%
CCSC(=O)N1CCSC1=Nc1ccccc1C(C)C [Compound I-6, 3-(ethylthiocarbonyl)-2-(2-isopropylphenyl)imino-1,3-thiazolidine]	–	9 nM	IC50 (human CB2R [1]; CHO cells expressing human CB2R, 4 μM forskolin, read-out: IC50 (inhibition of forskolin-stimulated cAMP synthesis)): 2.7 nM; melting point: 79 to 81 °C; Inhibition percentage (foot pad swelling, DTH reaction) ([4]; dose 40 mg/kg p.o. 1 hr before and 5 hr after induction): 45.2%
CCC(C)c1ccccc1N=C1SCC(C)(C)CN1C(=O)SC (stereo not drawn) [Compound I-51]	–	23 nM	IC50 (human CB2R [1]): 2.8 nM
CCC(C)c1ccccc1N=C1SCC(C)(C)CN1C(=S)SC (stereo not drawn) [Compound I-57]	4130 nM	6 nM	IC50 (human CB2R [1]): 5.5 nM
CSC(=S)N1CC(C)(C)CSC1=Nc1cccc(C(C)C)c1 [Compound I-69]	–	33 nM	–
CCSC(=S)N1CC(C)(C)CSC1=Nc1ccccc1C(C)CC (stereo not drawn) [Compound I-85]	–	25 nM	–
CCOC(=O)N1CC(C)(C)CSC1=Nc1ccccc1C(C)C	–	–	melting point: 84 to 86 °C
CCOc1ccc(/N=C2\SCC(C)(C)CN2C(=O)OC)cc1OCC	–	–	melting point: 75 to 76 °C
CSC(=O)N1CC(C)(C)CSC1=Nc1cccc(C(C)C)c1 [Compound I-52]	–	35 nM	–
COc1ccc(N=C2SCC(C)(C)CN2C(=S)SC)cc1OC [Compound I-77]	–	53 nM	Inhibition percentage (foot pad swelling, DTH reaction) [4, 5]: 33.8%
